Experiments:
[1] = tested on: GCNF single point mutations F284A, Y336F and F361A with SMRT ID2 peptide; experiment: FP SMRT ID2 recruitment with GCNF point mutants; format: biochemical, human; conditions: Y336F and F361A vs wild-type
Description: (§1) FP Assay. Fluorescence polarization (FP) assays were performed in triplicate on a 384-well Corning 3820 black opaque plate using a Biotek Synergy Neo2 HTS multimode microplate reader at excitation and emission wavelengths of 485 nm and 538 nm, respectively. Data were analyzed and plotted using GraphPad Prism as mean±SEM.
(§2) For the FP ligand titration assay, the aforementioned N-terminus fluorescein-tagged corepressor peptides were diluted to 500 nM from a 100 μM DMSO stock in the presence of 20 μM GCNF LBD and ligand concentration points 30, 20, 13, 9, 6, 4, 2.6, 1.7 and 0 μM in assay buffer containing 50 mM HEPES (pH 7.5), 50 mM KCl, 5 mM TCEP, 0.5 mM EDTA and 0.005% Tween20. The relative polarization was plotted against log of ligand concentration (μM) and the half maximal effective concentration (EC50) values were derived via sigmoidal fit.

[2] = target: T1, GCNF LBD with SMRT ID2 corepressor peptide (Homo sapiens, UniProt Q15406); experiment: FP ligand titration assay, SMRT ID2 peptide recruitment; format: biochemical; conditions: 20 μM GCNF LBD
T1 construct: Human GCNF (NR6A1) LBD (residues 248-480); made in house; host or cells: E. coli BL(21) DE3
T1 sequence (Q9Y618 2332-2354 partner limits assumed, one chain of several): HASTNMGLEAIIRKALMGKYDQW
Description: as §1, §2

[3] = target: T2, GCNF LBD with NCoR ID1 corepressor peptide (Homo sapiens, UniProt Q15406); experiment: FP ligand titration assay, NCoR ID1 peptide recruitment; format: biochemical; conditions: 20 μM GCNF LBD
T2 construct: Human GCNF (NR6A1) LBD (residues 248-480); made in house; host or cells: E. coli BL(21) DE3
T2 sequence (Q15406 248-480): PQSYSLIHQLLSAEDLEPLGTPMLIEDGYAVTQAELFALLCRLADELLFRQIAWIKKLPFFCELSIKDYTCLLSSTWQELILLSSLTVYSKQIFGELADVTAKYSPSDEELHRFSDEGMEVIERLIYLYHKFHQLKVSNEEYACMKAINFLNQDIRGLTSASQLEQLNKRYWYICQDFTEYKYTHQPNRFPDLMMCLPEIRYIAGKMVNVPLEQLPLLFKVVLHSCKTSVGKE
Description: as §1, §2

[4] = tested on: i3 neurons differentiated from iPSCs; experiment: qPCR of pluripotency and neuronal markers after iPSC differentiation; format: cell-based; conditions: qPCR upon ligand treatment
Description: qPCR using iPSC samples and differentiated neurons samples to make sure the primers worked. These primers include: • Housekeeping genes for normalization: CYCLO, 36B4, GAPDH • Stem cell markers: OCT4, SOX2, NANOG, REX1 • Neuronal markers: MAP2, MAPT, TUBB3, NCAM1
iPSC Differentiation to Neurons. For growing neurons from iPSC cells, the method described by Femandopulle were employed (Femandopulle et al., 2018). Briefly, cells were treated with doxycycline to turn on expression of Neurogenin-2 (NGN2), which irreversibly sets these cells on the path of neuronal differentiation. The cells were treated with doxycycline for 3 days (changing media every day), and then re-plate the cells onto new plates coated with PLO. For each time point, 21 samples were prepared (DMSO and ligands 34 and 80 at different concentrations, in triplicate).
An overview of the experiment timeline is shown as well: • Day 0: Plate iPSC on matrigel-coated 12-well plates • Day 2: Treat cells −/+ ligands in iPSC media • Day 3: Refeed cells induction media +Doxycycline −/+ ligands to start neuronal differentiation (Day 0 of differentiation) • Day 4: Refeed cells induction media +Doxycycline −/+ ligands (Day 1 of differentiation) • Day 5: Refeed cells induction media +Doxycycline −/+ ligands (Day 2 of differentiation) • Day 6: Take pictures; Refeed cells neuronal media −/+ ligands (Day 3 of differentiation) • Day 7: Collect cells for RNA/qPCR (Day 4 of differentiation)

COUP-TF I LBD = target: T3, COUP-TF I LBD (Homo sapiens, UniProt P10589); experiment: DSF specificity assay, COUP-TF I; format: binding
T3 construct: human COUP-TF I LBD (residues 184-410); hexahistidine tag with 3C protease site; made in house; host or cells: E. coli BL(21) DE3
T3 sequence (P10589 184-410): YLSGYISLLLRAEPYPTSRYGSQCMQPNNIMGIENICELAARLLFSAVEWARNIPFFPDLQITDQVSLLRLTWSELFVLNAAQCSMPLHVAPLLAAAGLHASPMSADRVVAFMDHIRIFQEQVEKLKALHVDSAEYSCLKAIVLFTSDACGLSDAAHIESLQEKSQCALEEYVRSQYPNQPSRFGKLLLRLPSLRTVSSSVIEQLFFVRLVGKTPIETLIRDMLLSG
Description: Protein Expression and Purification. Human GCNF (NR6A1) LBD (residues 248-480) and mutants F284A/F361A, human LRH-1 (NR5A2) LBD (residues 291-541), human RXRα LBD (residues 223-462), human COUP-TF I LBD (residues 184-410) and human SF-1 LBD (residues 219-461) were subcloned in pET45b(+) plasmid (Novagen) were expressed in E. coli BL(21) DE3 cells in terrific broth with 0.1 mg/mL ampicillin as 3C protease-cleavable hexahistidine-tagged fusion proteins. The bacterial culture was grown at 37° C. to an optical density of 0.8 to 1.0 at 600 nm. Protein expression was induced by adding 1 mM IPTG and was allowed to proceed for 14 h at 22° C. […]
DSF Assay. […] A total of 450 compounds (Life Chemicals) previously selected from a nuclear-receptor-biased library targeting REV-ERB were analyzed. Thermal stability was assessed on a Quantstudio 6 instrument (Biosystems) by ramping the temperature from 25° C. to 95° C. at 0.05° C./s and protein melt shifts were subsequently quantified by Boltzmann-derived melting temperature (Tm) using the Protein Thermal Shift (ThermoFisher) software. […]

Row | effect on recruitment of NCoR ID1 to GCNF [3] | change of Tm of COUP-TF I LBD (COUP-TF I LBD) | SMILES | SMRT-ID2 peptide recruitment by GCNF mutants [1] | effect on recruitment of SMRT ID2 to GCNF [2] | expression of pluripotency marker Sox2 [4] | expression of neuronal marker MAPT [4]
1 | did not substantially alter | did not significantly change | Cc1ccc(-n2ncc3c(N4CCOCC4)nc(NCc4ccco4)nc32)cc1 [Ligand 34, N-[(furan-2-yl)methyl]-1-(4-methylphenyl)-4-(morpholin-4-yl)-1H-pyrazolo[3,4-d]pyrimidin-6-amine] | substantially weakened corepressor peptide recruitment | increased the recruitment | substantially decreased | 
2 | did not substantially alter | did not significantly change | O=C(Cn1cc(S(=O)(=O)c2ccccc2)c2ccccc21)N1CCc2ccccc21 [Ligand 80, 2-[3-(benzenesulfonyl)-1H-indol-1-yl]-1-(2,3-dihydro-1H-indol-1-yl)ethan-1-one] | does not affect recruitment | but not ligand 80, increased the recruitment of SMRT ID2 | substantially decreased | substantially increased
